In patent publication US10597388B2, “Pyridazinone herbicides” (FMC CORPORATION, priority 2014, dated 2020):

What was measured:
Assay type in all cases: in vivo
[1] = test system: galium (catchweed bedstraw, Galium aparine); assay: Test C greenhouse herbicide test, pre- and postemergence
How it was run: (§1)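 Two application timings: at sowing into a soil/sand blend, and on 2–18 cm seedlings in peat-vermiculite potting mix. A non-phytotoxic, surfactant-containing solvent carried the compounds. Plants were compared with controls and rated visually on 0–100 after 13–15 d.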

[2] = test system: crabgrass, large (large crabgrass, Digitaria sanguinalis); assay: as above
How it was run: as §1

[3] = test system: barnyardgrass (Echinochloa crus-galli); assay: as above
How it was run: as §1

[4] = test system: ragweed (common ragweed, Ambrosia elatior); assay: as above
How it was run: as §1

[5] = test system: wheat (winter wheat, Triticum aestivum); assay: as above
How it was run: as §1

[6] = test system: johnsongrass (Sorghum halepense); assay: as above
How it was run: as §1

[7] = test system: ryegrass, Italian (Italian ryegrass, Lolium multiflorum); assay: as above
How it was run: as §1

[8] = test system: lambsquarters (Chenopodium album); assay: as above
How it was run: as §1

[9] = test system: oilseed rape (Brassica napus); assay: as above
How it was run: as §1

[10] = test system: morningglory (Ipomoea coccinea); assay: as above
How it was run: as §1

[11] = test system: foxtail, giant (giant foxtail, Setaria faberii); assay: as above
How it was run: as §1

[12] = test system: galium (catchweed bedstraw, Galium aparine); assay: Test A greenhouse herbicide test, postemergence
How it was run: (§2)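 Plants grown in loam soil/sand blend pots were treated postemergence at 2 to 10 cm height, one- to two-leaf stage, with formulated test chemicals. After approximately 10 d in a greenhouse, injury was rated visually against untreated controls on a 0 to 100 scale (0 no effect, 100 complete control).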

[13] = test system: blackgrass (Alopecurus myosuroides); assay: Test A greenhouse herbicide test, postemergence
How it was run: as §2

[14] = Postemergence, 31 g ai/ha, scale 0 to 100 (0 no effect, 100 complete control)
[15] = Postemergence, 62 g ai/ha, 0 to 100 scale (0 no effect, 100 complete control)
[16] = Postemergence, 250 g ai/ha, scale 0 to 100, 0 no effect, 100 complete control, 13 to 15 d
[17] = Preemergence, 31 g ai/ha, scale 0 to 100, 0 is no effect, 100 is complete control
[18] = Preemergence, 62 g ai/ha, scale 0 to 100, 0 is no effect, 100 is complete control
[19] = Preemergence, 125 g ai/ha, scale 0 to 100, 0 is no effect, 100 is complete control
[20] = Preemergence, 250 g ai/ha, scale 0 to 100, 0 no effect, 100 complete control
[21] = postemergence, 125 g ai/ha, scale 0 to 100, 0 no effect, 100 complete control
[22] = 125 g ai/ha, 0 to 100 scale where 0 is no effect and 100 is complete control
[23] = 500 g ai/ha, visual rating after approx. 10 d, 0 to 100 scale (0 no effect, 100 complete control)

CC(=O)Oc1c(C)nn(C)c(=O)c1-c1c(C)sc2ccc(C(F)(F)F)cc12 [Compound 132]
Plant response rating, Galium [1, 14]: 90
Galium plant response rating [1, 15]: 95
Plant response rating, Galium [1, 16]: 95
Plant response rating, Galium [1, 17]: 90
Plant response rating, Galium [1, 18]: 90
Plant response rating, Galium [1, 19]: 90
Galium plant response rating [1, 20]: 98
Galium plant response rating [1, 21]: 95
Plant response rating, Crabgrass, Large [2, 14]: 15
Crabgrass, Large plant response rating [2, 15]: 15
Plant response rating, Crabgrass, Large [2, 16]: 25
Plant response rating, Crabgrass, Large [2, 17]: 0
Plant response rating, Crabgrass, Large [2, 18]: 0
Plant response rating, Crabgrass, Large [2, 19]: 10
Crabgrass, Large plant response rating [2, 20]: 40
Crabgrass, Large plant response rating [2, 21]: 10
Plant response rating, Barnyardgrass [3, 14]: 15
Barnyardgrass plant response rating [3, 15]: 30
Plant response rating, Barnyardgrass ([3]; Postemergence, 125 g ai/ha, scale 0 to 100, 0 is no effect, 100 is complete control): 25
Plant response rating, Barnyardgrass [3, 16]: 25
Plant response rating, Barnyardgrass [3, 17]: 0
Plant response rating, Barnyardgrass [3, 18]: 5
Plant response rating, Barnyardgrass [3, 19]: 35
Barnyardgrass plant response rating [3, 20]: 45
Plant response rating, Ragweed [4, 14]: 65
Ragweed plant response rating [4, 15]: 95
Plant response rating, Ragweed [4, 16]: 98
Plant response rating, Ragweed [4, 17]: 70
Plant response rating, Ragweed [4, 18]: 85
Plant response rating, Ragweed [4, 19]: 95
Ragweed plant response rating [4, 20]: 100
Ragweed plant response rating [4, 21]: 95
Plant response rating, Wheat [5, 14]: 0
Wheat plant response rating [5, 15]: 0
Plant response rating, Wheat [5, 16]: 0
Plant response rating, Wheat [5, 17]: 25
Plant response rating, Wheat [5, 18]: 40
Plant response rating, Wheat [5, 19]: 20
Wheat plant response rating [5, 20]: 50
Wheat plant response rating [5, 21]: 0
Plant response rating, Johnsongrass [6, 14]: 0
Johnsongrass plant response rating [6, 15]: 5
Plant response rating, Johnsongrass [6, 16]: 10
Plant response rating, Johnsongrass [6, 17]: 15
Plant response rating, Johnsongrass [6, 18]: 10
Plant response rating, Johnsongrass [6, 19]: 55
Johnsongrass plant response rating [6, 20]: 25
Johnsongrass plant response rating [6, 21]: 5
Plant response rating, Ryegrass, Italian [7, 14]: 80
Ryegrass, Italian plant response rating [7, 15]: 85
Plant response rating, Ryegrass, Italian [7, 16]: 95
Plant response rating, Ryegrass, Italian [7, 17]: 45
Plant response rating, Ryegrass, Italian [7, 18]: 90
Plant response rating, Ryegrass, Italian [7, 19]: 95
Ryegrass, Italian plant response rating [7, 20]: 95
Ryegrass, Italian plant response rating [7, 21]: 95
Plant response rating, Lambsquarters [8, 14]: 90
Lambsquarters plant response rating [8, 15]: 90
Plant response rating, Lambsquarters [8, 16]: 100
Plant response rating, Lambsquarters [8, 17]: 50
Plant response rating, Lambsquarters [8, 18]: 60
Plant response rating, Lambsquarters [8, 19]: 85
Lambsquarters plant response rating [8, 20]: 100
Lambsquarters plant response rating [8, 21]: 100
Plant response rating, Oilseed Rape [9, 14]: 5
Oilseed Rape plant response rating [9, 15]: 10
Plant response rating, Oilseed Rape [9, 16]: 40
Plant response rating, Oilseed Rape [9, 17]: 70
Plant response rating, Oilseed Rape [9, 18]: 85
Plant response rating, Oilseed Rape [9, 19]: 30
Oilseed Rape plant response rating [9, 20]: 90
Oilseed Rape plant response rating [9, 21]: 5
Plant response rating, Morningglory [10, 14]: 65
Morningglory plant response rating [10, 15]: 80
Plant response rating, Morningglory [10, 16]: 98
Plant response rating, Morningglory [10, 17]: 40
Plant response rating, Morningglory [10, 18]: 65
Plant response rating, Morningglory [10, 19]: 95
Morningglory plant response rating [10, 20]: 90
Morningglory plant response rating [10, 21]: 95
Plant response rating, Foxtail, Giant [11, 14]: 30
Foxtail, Giant plant response rating [11, 15]: 40
Plant response rating, Foxtail, Giant [11, 16]: 75
Plant response rating, Foxtail, Giant [11, 17]: 40
Plant response rating, Foxtail, Giant [11, 18]: 70
Plant response rating, Foxtail, Giant [11, 19]: 85
Foxtail, Giant plant response rating [11, 20]: 98
Foxtail, Giant plant response rating [11, 21]: 60
Plant response rating, Galium [12, 22]: 80
Plant response rating, Galium [12, 23]: 100
Plant response rating, Blackgrass [13, 22]: 30
Plant response rating, Blackgrass [13, 23]: 50
